The test system of data set [1] is Influenza A virus A/Aichi/2/68 (H3N2). The data set can be described thus: microbe, parasite or virus in culture. It counts as cell-based. To be noted: MDCK cells, MOI 0.05, 48 h, CellTiter-Glo, 95% confidence intervals; for IC50: Influenza A virus, H3N2, read-out: antiviral activity IC50 (reduction of virus induced cytopathic effect).
The next data set addresses T1, H1N1 PA-Nter (Influenza A virus, UniProt C3W5S0).
T1 construct: PA-N-ter (residues 1–198) from A/California/04/2009-pH1N1; made in house; host or cells: E. coli BL21(DE3)
It counts as binding.

Another data set in a line: in vitro. The note with it: dog.
Another data set has as its target influenza polymerase. To be noted: read-out: IC50 in vitro cap-dependent transcriptase assay; cited from earlier work.

Like-named read-outs stand apart in the source and are kept apart here.

As a reminder, the IC50 is the concentration needed to halve the response being measured.

Take `O=C(O)/C(O)=C/C(=O)C1(Cc2ccc(Cl)cc2)CCCN(S(=O)(=O)Cc2ccccc2)C1` (stereo not shown) [R05-1, 4-[3-[(4-chlorophenyl)methyl]-1-(phenylmethylsulpho)-3-piperidinyl]-2-hydroxy-4-oxo-2-butenoic acid]: the IC50 is 20.4 ± 3 µM in data set [1] and 0.19 µM at influenza polymerase. The “Tm (apparent melting temperature)” value at H1N1 PA-Nter is 69 °C. For the same molecule, the CC50 in the data set “in vitro” is over 100 µM.
Regarding `O=C(O)/C(O)=C/C(=O)C1(Cc2ccc(Cl)cc2)CCCN(Cc2ccccc2)C1` (stereo not shown) [R05-3, 4-[N-benzyl-3-(4-chlorobenzyl)piperidin-3-yl]2,4-dioxobutanoic acid], the IC50 in data set [1] came out at 19.9 ± 2 µM. For the same molecule, the “Tm (apparent melting temperature)” value at H1N1 PA-Nter came out at 69 °C. The molecule further showed a CC50 in the data set “in vitro” of 79.8 ± 11.5 µM.
Consider `O=C(O)C(=O)CC(=O)c1ccccc1` [DPBA, 2,4-dioxo-4-phenylbutanoic acid], for which the “antiviral activity IC50 (reduction of virus induced cytopathic effect)” value in data set [1] was “inactive”; in data set [1] (listed as DBPA), “did not show any inhibitory effect”. Besides, the “Tm (apparent melting temperature)” value on H1N1 PA-Nter (5 µM PA-Nter, 500 µM inhibitor, no ligand 53.5) was determined as 65 °C. In addition, the CC50 in the data set “in vitro” was over 200 µM.
As to `O=C(O[C@@H]1Cc2c(O)cc(O)cc2O[C@@H]1c1cc(O)c(O)c(O)c1)c1cc(O)c(O)c(O)c1` [EGCG, [(2R,3R)-5,7-dihydroxy-2-(3,4,5-trihydroxyphenyl)chroman-3-yl]3,4,5-trihydroxybenzoate], the IC50 in data set [1] came to 1.1 ± 0.4 µM. In the data set “in vitro”, this molecule came in with a CC50 of 54.7 ± 4.5 µM.
Consider `O=C(O)/C(O)=C/C(=O)C1(Cc2ccc(Cl)cc2)CCN(CC2CCCCC2)CC1` [R05-2, 4-[1-cyclohexylmethyl-4-(p-chlorobenzyl)piperidin-4-yl]2,4-dioxobutanoic acid], for which the IC50 in data set [1] stood at 15.9 ± 4 µM. Also, the “Tm (apparent melting temperature)” value at H1N1 PA-Nter came out at 71 °C. Moreover, the CC50 in the data set “in vitro” is over 50 µM.

The values above are taken from publication PMC3410856, “Structural Analysis of Specific Metal Chelating Inhibitor Binding to the Endonuclease Domain of Influenza pH1N1 (2009) Polymerase” (PLoS Pathogens, 2012).
